From publication PMC5504357, “Antifungal Potential of Copper(II), Manganese(II) and Silver(I) 1,10-Phenanthroline Chelates Against Multidrug-Resistant Fungal Species Forming the Candida haemulonii Complex: Impact on the Planktonic and Biofilm Lifestyles” (Frontiers in Microbiology, 2017)
≈ marks a conversion by molar mass, not a printed value. Where two headings read alike, the source gives them in different places.

What was measured:
Solubility in solvents = assay type: physicochemical; conditions: solvents as named
Procedure: {[Cu(3,6,9-tdda)(phen)2].3H2O.EtOH}n (7). Step (i): Copper(II) acetate hydrate (1.50 g; 7.51 mmol) was dissolved in ethanol (50 mL) and the solution was added to an ethanolic solution (25 mL) of 3,6,9-trioxaundecanedioic acid (3,6,9-tddaH2) (2.84 g; […]). The light-green suspension was refluxed for 1 h, and after cooling to room temperature the light-green solid, [Cu(3,6,9-tdda)].H2O, was filtered off, washed with cold ethanol and air dried. Yield: 1.88 g (82.97%). % Calculated: C: 31.84, H: 4.68. % Found: C: 32.20, H: 4.60. […] Step (ii): [Cu(3,6,9-tdda)].H2O (1.00 g; 3.31 mmol) and phen (2.39 g; 13.26 mmol) were dissolved together in ethanol (50 mL) and the resulting dark-green mixture was refluxed for 2 h. The suspension was cooled and the green solid, {[Cu(3,6,9-tdda)(phen)2]3H2O.EtOH}n(7), was filtered off, washed with cold ethanol and air dried. Yield: 1.63 g (66.09%). % Calculated: C: 54.87, H: 5.42, N: 7.53. % Found: C: 54.65, H: 5.63, N: 7.39.
[Ag2(3,6,9-tdda)(phen)4].EtOH (16). Step (i): Silver(I) acetate (3.00 g; 17.97 mmol) was dissolved in ethanol (30 mL) and the solution was added to an ethanolic solution (25 mL) of 3,6,9-trioxaundecanedioic acid (3,6,9-tddaH2) (2.84 g; 8.95 mmol) and the orange-brown suspension refluxed for 3 h. […] Green [Ag2(3,6,9-tdda)(phen)4].EtOH (16) precipitated and was filtered off, washed with cold ethanol and air dried. Yield: 0.83 g (65.10%). % Calculated: C: 57.92, H: 4.19, N: 9.32. % Found: C: 57.75, H: […], N: 9.02. IR (KBr) νmax: 3380, 3046, 2905, 1978, 1804, 1618, 1585, 1509, 1421, 1322, 1263, 1215, 1121, 1077, 1018, 932, 890, 838, 726, 621, 465, 413 cm^−1. ^1H NMR (500 MHz, DMSO-d6, 313 K, TMS) δ = 9.12(8H, s), 8.63 (8H, d), 8.08 (8H, s), 7.91 (8H, dd), 3.74 (4H, s), 3.57 (8H, dd). ^13C NMR (125 MHz, DMSO-d6, 313 K, TMS) δ = 173.41, 151.28, 143.57, 138.03, 129.24, 127.37, 124.74, 71.44, 70.42, 69.74.

Candida duobushaemulonii [1] = assay: Planktonic growth, broth microdilution (CLSI M27-A3), MIC; assay type: cell-based; conditions: Candidozyma duobushaemuli
In short: (§1)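 Following CLSI M27-A3, compounds were serially diluted in RPMI 1640 (0.0625-32 mg/L) and incubated with isolates at 37°C for 48 h. Visual reading gave the MIC as the lowest growth-free concentration, and MICs were pooled as a geometric mean over isolates; inocula came from 48 h Sabouraud-dextrose cultures.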

[2] = tested on: Candida haemulonii var. vulnera; assay: as above; assay type: cell-based; conditions: Candidozyma haemuli
In short: as §1

Candida haemulonii [3] = assay: as above; assay type: cell-based; conditions: Candidozyma haemuli
In short: as §1

C. haemulonii complex = assay: Planktonic growth, overall across all nine isolates; assay type: cell-based, Candida haemulonii complex; conditions: for MIC: Candidozyma haemuli, geometric mean across all nine strains, read-out: Overall GM-MIC; for effect on planktonic fungal growth/viability (in words): nine clinical isolates, 0.0625-32 mg/L
In short: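 Clinical isolates (nail, blood, urine) grown 48 h at 37°C in Sabouraud-dextrose, then tested by CLSI M27-A3 broth microdilution in RPMI 1640 over 0.0625-32 mg/L, 48 h at 37°C. MIC is the lowest concentration with no visible growth; geometric mean MIC calculated across all isolates.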

[4] = Mammalian cell toxicity (MTT assay) and selectivity index; assay type: cell-based, Human; conditions: human, A549 cells (human lung adenocarcinoma); MTT, 48 h incubation
In short: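 A549 cells were exposed to compounds (0.0313–512 μg/mL) in DMEM for 48 h at 37 °C, 5% CO2. Viability was measured by MTT (3 h, dark), with formazan dissolved in DMSO and read at 450 nm. CC50 was derived, and SI calculated as A549 CC50 divided by C. haemulonii complex GM-MIC.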

Candida duobushaemulonii [5] = assay: Biofilm-growing cells, XTT assay, bMIC; assay type: cell-based; conditions: for GM-bMIC: geometric mean, C. duobushaemulonii isolates; for bMIC: mature biofilm, 48 h, 50% inhibition of metabolic activity
In short: (§2)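 Biofilms formed from 10^6 yeast cells in Sabouraud-dextrose broth, 48 h at 37 °C, then washed and exposed to compounds for a further 48 h at 37 °C. Metabolic activity read by XTT reduction; bMIC is the lowest concentration giving 50% inhibition versus compound-free wells.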

[6] = tested on: Candida haemulonii var. vulnera; assay: Biofilm-growing cells, XTT assay, bMIC; assay type: cell-based; conditions: for GM-bMIC: geometric mean, C. haemulonii var. vulnera isolates; for bMIC: mature biofilm, 48 h, 50% inhibition of metabolic activity
In short: as §2

Candida haemulonii [7] = assay: Biofilm-growing cells, XTT assay, bMIC; assay type: cell-based; conditions: for GM-bMIC: geometric mean, C. haemulonii isolates, values marked * do not include LIP Ch4 (>512); for bMIC: mature biofilm, 48 h, 50% inhibition of metabolic activity
In short: as §2

[8] = tested on: Candida haemulonii complex; assay: Biofilm-growing cells, overall across isolates; assay type: cell-based; conditions: geometric mean across strains, values marked * do not include LIP Ch4 (>512)
In short: as §2

[9] = 48 h, isolate LIP Ch1, planktonic, 48 h, 37°C, read-out: MIC
[10] = 48 h, isolate LIP Ch6, planktonic, 48 h, 37°C, read-out: MIC
[11] = 48 h, isolate LIP Ch8, planktonic, 48 h, 37°C, read-out: MIC
[12] = geometric mean of three C. duobushaemulonii isolates, read-out: GM-MIC
[13] = 48 h, isolate LIP Ch5, planktonic, 48 h, 37°C, read-out: MIC
[14] = 48 h, isolate LIP Ch9, planktonic, 48 h, 37°C, read-out: MIC
[15] = 48 h, isolate LIP Ch11, planktonic, 48 h, 37°C, read-out: MIC
[16] = geometric mean of three C. haemulonii var. vulnera isolates, read-out: GM-MIC
[17] = 48 h, isolate LIP Ch4, planktonic, 48 h, 37°C, read-out: MIC
[18] = 48 h, isolate LIP Ch7, planktonic, 48 h, 37°C, read-out: MIC
[19] = 48 h, isolate LIP Ch12, planktonic, 48 h, 37°C, read-out: MIC
[20] = geometric mean of three C. haemulonii isolates, read-out: GM-MIC

| Compound | Solubility (Solubility in solvents) | MIC (Candida duobushaemulonii [1]; [9]) | MIC (Candida duobushaemulonii [1]; [10]) | MIC (Candida duobushaemulonii [1]; [11]) | MIC (Candida duobushaemulonii [1]; [12]) | MIC [2, 13] | MIC [2, 14] | MIC [2, 15] | MIC [2, 16] | MIC (Candida haemulonii [3]; [17]) | MIC (Candida haemulonii [3]; [18]) | MIC (Candida haemulonii [3]; [19]) | MIC (Candida haemulonii [3]; [20]) | MIC (C. haemulonii complex; in μM) | MIC (C. haemulonii complex) | effect on planktonic fungal growth/viability (in words) (C. haemulonii complex) | CC50 at 48 h [4] | GM-bMIC (Candida duobushaemulonii [5]) | bMIC (Candida duobushaemulonii [5]; isolate LIP Ch1) | bMIC (Candida duobushaemulonii [5]; isolate LIP Ch6) | other results |
| --- | --- | --- | --- | --- | --- | --- | --- | --- | --- | --- | --- | --- | --- | --- | --- | --- | --- | --- | --- | --- | --- |
| O.O.O=C([O-])COCCOCCOCC(=O)[O-].[Ag+].[Ag+] [[Ag2(3,6,9-tdda].2H2O] | soluble in hot H2O and hot DMSO |  |  |  |  |  |  |  |  |  |  |  |  |  |  |  |  |  |  |  |  |
| O=C1C(=O)c2cccnc2-c2ncccc21 [phendione, 1,10-phenanthroline-5,6-dione, reference compound] |  | 2 µg/mL (≈ 9.52 µM) | 4 µg/mL (≈ 19 µM) | 2 µg/mL (≈ 9.52 µM) | 2.52 µg/mL (≈ 12 µM) | 2 µg/mL (≈ 9.52 µM) | 2 µg/mL (≈ 9.52 µM) | 2 µg/mL (≈ 9.52 µM) | 2 µg/mL (≈ 9.52 µM) | 2 µg/mL (≈ 9.52 µM) | 2 µg/mL (≈ 9.52 µM) | 2 µg/mL (≈ 9.52 µM) | 2 µg/mL (≈ 9.52 µM) | 10.3 µM | 2.16 µg/mL | appreciably deterred fungal growth | 2.02 µg/mL (≈ 9.61 µM) | 12.70 mg/L | 4 mg/L | 32 mg/L | bMIC (Candida duobushaemulonii [5]; isolate LIP Ch8): 16 mg/L; GM-bMIC [6]: 20.16 mg/L; bMIC ([6]; isolate LIP Ch5): 16 mg/L; bMIC ([6]; isolate LIP Ch9): 16 mg/L; bMIC ([6]; isolate LIP Ch13): 32 mg/L; GM-bMIC (Candida haemulonii [7]): 11.31^* mg/L; bMIC (Candida haemulonii [7]; isolate LIP Ch4): >512 mg/L; bMIC (Candida haemulonii [7]; isolate LIP Ch7): 8 mg/L; bMIC (Candida haemulonii [7]; isolate LIP Ch14): 16 mg/L; Overall GM-bMIC ([8]; in μM): 76 µM; Overall GM-bMIC [8]: 14.67 mg/L |
| c1cnc2c(c1)ccc1cccnc12 [phen, 1,10-phenanthroline] |  | 1 µg/mL (≈ 5.55 µM) | 1 µg/mL (≈ 5.55 µM) | 1 µg/mL (≈ 5.55 µM) | 1 µg/mL (≈ 5.55 µM) | 1 µg/mL (≈ 5.55 µM) | 1 µg/mL (≈ 5.55 µM) | 0.5 µg/mL (≈ 2.77 µM) | 0.79 µg/mL (≈ 4.38 µM) | 1 µg/mL (≈ 5.55 µM) | 1 µg/mL (≈ 5.55 µM) | 1 µg/mL (≈ 5.55 µM) | 1 µg/mL (≈ 5.55 µM) | 5.16 µM | 0.93 µg/mL | appreciably deterred fungal growth | 4.3 µg/mL (≈ 23.9 µM) | 1 mg/L | 1 mg/L | 1 mg/L | activity of metal-free phen relative to phendione (C. haemulonii complex; planktonic, more active than phendione): ~ 2 fold; bMIC (Candida duobushaemulonii [5]; isolate LIP Ch8): 1 mg/L; GM-bMIC [6]: 10.08 mg/L; bMIC ([6]; isolate LIP Ch5): 4 mg/L; bMIC ([6]; isolate LIP Ch9): 32 mg/L; bMIC ([6]; isolate LIP Ch13): 8 mg/L; GM-bMIC (Candida haemulonii [7]): 12.70 mg/L; bMIC (Candida haemulonii [7]; isolate LIP Ch4): 512 mg/L; bMIC (Candida haemulonii [7]; isolate LIP Ch7): 2 mg/L; bMIC (Candida haemulonii [7]; isolate LIP Ch14): 2 mg/L; Overall GM-bMIC ([8]; in μM): 27.96 µM; Overall GM-bMIC [8]: 5.04 mg/L |
| O.O=C([O-])COCCOCCOCC(=O)[O-].[Cu+2] [[Cu(3,6,9-tdda)].H2O] | soluble in H2O, MeOH, EtOH and insoluble in CHCl3, ethyl acetate and acetone |  |  |  |  |  |  |  |  |  |  |  |  |  |  |  |  |  |  |  |  |
